Laboratory results as given in patent US20250249045A1, “COMPOSITIONS AND METHODS RELATED TO EXTRACELLULAR VESICLE THERAPEUTIC DELIVERY PLATFORM” (priority 2022, published 2025).

Legend:
SARS-CoV-2 pseudovirus [1] = type: cell-based
SARS-CoV-2 pseudovirus [2] = tested on: SARS-CoV-2 pseudovirus; design: species or system mice; conditions: mouse

rhACE2
entry of SARS-CoV-2 pseudovirus into ACE2-expressing A549 cells (SARS-CoV-2 pseudovirus [1]): efficiently blocked the infection | pseudovirus neutralization by flow cytometry (SARS-CoV-2 pseudovirus [1]): efficiently neutralized | pseudovirus signals in lung, ex-vivo fluorescence imaging (SARS-CoV-2 pseudovirus [2]): failed to block SARS-CoV-2 pseudovirus entry
